The text below walks through data of patent publication US20100226919A1, “Antitumoral Treatments” (Pharma Mar, S.A., priority 2007, published 2010).

The test system of one experiment is A549 cells. Conditions: read-out: IC50 (50% cell growth inhibition); A549, 72 h exposure; range given for four highly sensitive cell lines. From the text: (§1) Nine human NSCLC cell lines that were characterized for EGFR, Ras, and p53 gene expression and sensitivity to a variety of antitumor agents (paclitaxel, premetrexed, erlotinib, etc.) were used as models to examine the cell sensitivity to PM02734 trifluoroacetate salt. These NSCLC cell lines are the following: H322, A549, H661, H1299, H1975 with L858R and T790M EGFR double mutation, H358, H460, H1650 with L858R EGFR mutation, and H3255 with […]. […] H3255 cell line is a gift from Dr. Pasi A. Jänne (Dana-Farber Cancer Institute, Boston Mass.).
(§2) Exponentially growing cells (1×10^5/ml) were plated in 96-well plates and allowed to attach overnight. Cells were exposed to various concentrations of PM02734 trifluoroacetate salt at 37° C. for 72 hours.
(§3) H322, A549, H1299 and H460 cells were plated in 96-well plates as described above. […] Enzyme Regul. […] The synergistic effects (CI index) were analyzed by software CalcuSyn.

The next experiment relates to H1299 cells. As to conditions: read-out: IC50 (50% cell growth inhibition); H1299, 72 h exposure; range given for two cell lines of intermediate sensitivity.
From the text: as §1, §2, §3

In experiment [1] the test system is H322 cells. Conditions: read-out: IC50 (50% cell growth inhibition); H322, 72 h exposure; range given for four highly sensitive cell lines.
From the text: as §1, §2, §3

The next experiment has as its system H460 cells. As to conditions: read-out: IC50 (50% cell growth inhibition); H460, 72 h exposure; resistant cell lines.
From the text: as §1, §2, §3

The next experiment has as its system H1650 cells. As to conditions: read-out: IC50 (50% cell growth inhibition); H1650 (EGFR mutant), 72 h exposure; resistant cell lines.
From the text: as §1, §2

A further experiment has as its system H1975 cells. As to conditions: read-out: IC50 (50% cell growth inhibition); H1975 (double EGFR mutant), 72 h exposure; range given for two cell lines of intermediate sensitivity.
From the text: as §1, §2

Experiment [2] deals with H3255 cells. Conditions: read-out: IC50 (50% cell growth inhibition); H3255 (EGFR mutant), 72 h exposure; range given for four highly sensitive cell lines.
From the text: as §1, §2

The next experiment deals with H358 cells. Conditions: read-out: IC50 (50% cell growth inhibition); H358, 72 h exposure; resistant cell lines.
From the text: as §1, §2

The next experiment deals with H661 cells. Conditions: read-out: IC50 (50% cell growth inhibition); H661, 72 h exposure; range given for four highly sensitive cell lines.
From the text: as §1, §2

Experiment [3] deals with H322 cells. Briefly: Cell-cycle progression and apoptosis by propidium iodide FACS analysis. As to conditions: H322, 0.5 μM, 0, 3, 6 and 24 hours. The experiment is classed as cell-based, human. The procedure:
H322 cells were plated in a 6-well plate and incubated with RPMI1640 medium with 10% fetal bovine serum at 37° C. overnight. […] At the indicated time point, cells were harvested by trypsinization and fixed with cold 75% ethanol at 4° C. overnight. Cells were incubated with 1 μg/ml of propidium iodide and 5 μg/ml of RNase I at room temperature for 3 hours. The cell-cycle distribution and apoptotic cells (Sub-G0/G1) were measured by FACS analysis (BD Biosciences, San Joes, Calif.).
(In general: Flow cytometry measures light scatter and fluorescence of single cells or particles in a stream.)

Experiment [4] deals with human A549 NSCLC cell line. Briefly: A549 subcutaneous xenograft model in nude mice. As to conditions: PM02734 0.1 mg/kg i.v. 3 times per week for 2 weeks; erlotinib 50 mg/kg p.o. 5 times per week for 2 weeks; p<0.001. The format is in vivo. The procedure: PM02734 was administered in its trifluoroacetate salt using water for injection as vehicle. Erlotinib was administered using sterile water as vehicle.
Nude mice (NUR-NU-F-M, female, 5-6 weeks old, Taconic Farm, Germantown N.Y.) were subcutaneously implanted with the human A549 NSCLC cell line (4.5×10^6 cells/mouse). Seven days later, mice were randomly divided into 4 groups with 5 mice per group. One group of mice received the combination treatment (PM02734: 0.1 mg/kg×3 times per week (on days 1, 3, and 5) for 2 weeks, i.v.; erlotinib: 50 mg/kg×5 times per week (on days 1, 2, 3, 4, and 5) for 2 weeks, p.o.). In this group erlotinib was given first followed two hours later by the administration of PM02734. The other groups were treated with PM02734 alone (0.1 mg/kg×3 times per week (on days 1, 3, and 5) for 2 weeks, i.v.), erlotinib alone (50 mg/kg×5 times per week (on days 1, 2, 3, 4, and 5) for 2 weeks, p.o.) or without treatment. Tumor size was measured twice a week. Tumor volume was calculated using the following equation: Tumor volume (mm^3)=0.5×longer diameter×(shorter diameter)^2 in millimeter. The experiment was terminated when ≧50% mice had tumors larger than 15 mm (i.e., the longer diameter>15 mm).

For the next experiment, the system named is mouse leukemia (P388). Conditions: cited from earlier work.
Experiment [5] deals with non-small cell lung (A549). As to conditions: cited from earlier work.
In a further experiment the test system is colon (HT-29). As to conditions: cited from earlier work.
In experiment [6] the test system is H322 cells. Conditions: only two of the nine cell lines sensitive; cited from earlier work.
In experiment [7] the test system is H3255 cells. Conditions: only two of the nine cell lines sensitive; cited from earlier work.
Experiment [8] deals with H322 cells. Conditions: from Ling et al., Mol Pharmacol 2007; cited from earlier work.

Where two headings read alike, the source gives them in different places.

For orientation: IC50 means the concentration needed to halve the response being measured.

Take `C/C=C1\NC(=O)[C@H](Cc2ccccc2)NC(=O)[C@@H](C(C)C)NC(=O)[C@@H]([C@@H](C)CC)NC(=O)[C@H](NC(=O)[C@H](NC(=O)[C@H](CCCN)NC(=O)[C@H]2CCCN2C(=O)[C@H](NC(=O)[C@@H](NC(=O)[C@@H](NC(=O)[C@H](NC(=O)CC[C@@H](C)CC)C(C)C)[C@@H](C)O)C(C)C)C(C)C)[C@@H](C)CC)[C@@H](C)OC(=O)[C@H](C(C)C)NC1=O` [PM02734, (4S)-MeHex-D-Val-L-Thr-L-Val-D-Val-D-Pro-L-Orn-D-allo-Ile-cyclo(D-allo-Thr-D-allo-Ile-D-Val-L-Phe-Z-Dhb-L-Val)]: the IC50 in the experiment on A549 cells was 300 to 1250 nM; in the experiment on H1299 cells, 2000 to 2800 nM; with H322 cells [1] it was 300 to 1250 nM; in the experiment with H460 cells it was over 5000 nM; with H1650 cells, over 5000 nM; with H1975 cells, 2000 to 2800 nM. Moreover, the IC50 is 300 to 1250 nM in the experiment on H3255 cells [2], over 5000 nM in the experiment with H358 cells and 300 to 1250 nM in the experiment with H661 cells. In addition, in the experiment on H322 cells [3], the “apoptotic cells (Sub-G0/G1)” value was “apoptotic cell death in a time-dependent manner”. Besides, the “effect on cell-cycle progression” value with H322 cells [3] is on record as “cell cycle arrest at S-phase”. Besides, in experiment [4], the “% treated vs. control tumor volume ratio (% T/C)” value stood at 74%.

Consider Kahalalide F, for which the “in vitro antitumor activity” value (in the experiment on mouse leukemia (P388); in experiment [5]; in the experiment with colon (HT-29)) was “micromolar activity” throughout.

For `C#Cc1cccc(Nc2ncnc3cc(OCCOC)c(OCCOC)cc23)c1` [erlotinib, Erlotinib], the “cell sensitivity to erlotinib” value in the experiment on H322 cells [6] and in the experiment with H3255 cells [7] was “sensitive” each time. The “effect on cell-cycle progression” value with H322 cells [8] was “G1/S phase arrest”.
